Experimental data as given in patent publication US9707233B2, “Heterocyclylamines as PI3K inhibitors” (Incyte Corporation, priority 2011, dated 2017).
Structures can show the parent of a compound that is named as a salt.

Target: PI3Kδ (p110δ/p85α) (Homo sapiens (Human), UniProt O00329)
Assay: PI3Kδ scintillation proximity assay (Example A3)
Format: biochemical
Conditions: 20 μM ATP, 20 μM PIP2, 4 nM PI3Kδ; read-out: PI3Kδ SPA IC50
How it was run: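 IC50 derived by fitting percent control activity against log inhibitor concentration. Radiolabelled product was measured by scintillation counting on WGA SPA beads after overnight shaking. The kinase reaction used 4 nM p110δ/p85α, 20 μM ATP (with [γ-33P]ATP) and 20 μM PIP2 at pH 6.7 and room temperature, with 0.5% DMSO final.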

Chain of PI3Kδ (p110δ/p85α) (O00329 whole entry): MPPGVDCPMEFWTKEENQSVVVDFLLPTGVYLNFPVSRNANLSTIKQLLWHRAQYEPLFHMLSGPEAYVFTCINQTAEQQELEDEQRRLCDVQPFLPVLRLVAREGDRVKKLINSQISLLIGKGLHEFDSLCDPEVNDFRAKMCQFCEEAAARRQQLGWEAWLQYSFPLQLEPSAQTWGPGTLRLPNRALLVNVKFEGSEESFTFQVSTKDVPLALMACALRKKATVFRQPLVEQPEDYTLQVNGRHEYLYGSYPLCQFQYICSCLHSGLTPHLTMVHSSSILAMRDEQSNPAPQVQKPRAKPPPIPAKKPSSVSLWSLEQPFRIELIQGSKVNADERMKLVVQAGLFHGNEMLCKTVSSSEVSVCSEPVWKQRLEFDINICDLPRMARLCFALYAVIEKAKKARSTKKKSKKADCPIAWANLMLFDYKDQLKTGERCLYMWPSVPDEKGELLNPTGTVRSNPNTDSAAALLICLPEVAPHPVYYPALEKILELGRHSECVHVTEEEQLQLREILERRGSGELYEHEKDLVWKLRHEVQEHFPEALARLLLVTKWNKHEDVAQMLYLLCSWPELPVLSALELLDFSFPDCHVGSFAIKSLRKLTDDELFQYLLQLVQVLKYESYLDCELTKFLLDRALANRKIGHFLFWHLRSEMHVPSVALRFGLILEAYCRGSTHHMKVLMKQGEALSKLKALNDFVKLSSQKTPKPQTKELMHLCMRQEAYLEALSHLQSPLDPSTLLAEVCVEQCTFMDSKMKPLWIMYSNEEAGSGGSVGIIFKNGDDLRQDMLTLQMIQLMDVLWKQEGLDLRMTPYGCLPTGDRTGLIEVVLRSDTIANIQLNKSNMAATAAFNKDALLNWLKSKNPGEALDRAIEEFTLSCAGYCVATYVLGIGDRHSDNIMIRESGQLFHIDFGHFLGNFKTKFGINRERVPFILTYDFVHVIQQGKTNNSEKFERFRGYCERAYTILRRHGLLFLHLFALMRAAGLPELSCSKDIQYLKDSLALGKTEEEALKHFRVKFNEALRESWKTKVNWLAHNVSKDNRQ
Chain of PI3Kδ (p110δ/p85α) (P27986 whole entry partner): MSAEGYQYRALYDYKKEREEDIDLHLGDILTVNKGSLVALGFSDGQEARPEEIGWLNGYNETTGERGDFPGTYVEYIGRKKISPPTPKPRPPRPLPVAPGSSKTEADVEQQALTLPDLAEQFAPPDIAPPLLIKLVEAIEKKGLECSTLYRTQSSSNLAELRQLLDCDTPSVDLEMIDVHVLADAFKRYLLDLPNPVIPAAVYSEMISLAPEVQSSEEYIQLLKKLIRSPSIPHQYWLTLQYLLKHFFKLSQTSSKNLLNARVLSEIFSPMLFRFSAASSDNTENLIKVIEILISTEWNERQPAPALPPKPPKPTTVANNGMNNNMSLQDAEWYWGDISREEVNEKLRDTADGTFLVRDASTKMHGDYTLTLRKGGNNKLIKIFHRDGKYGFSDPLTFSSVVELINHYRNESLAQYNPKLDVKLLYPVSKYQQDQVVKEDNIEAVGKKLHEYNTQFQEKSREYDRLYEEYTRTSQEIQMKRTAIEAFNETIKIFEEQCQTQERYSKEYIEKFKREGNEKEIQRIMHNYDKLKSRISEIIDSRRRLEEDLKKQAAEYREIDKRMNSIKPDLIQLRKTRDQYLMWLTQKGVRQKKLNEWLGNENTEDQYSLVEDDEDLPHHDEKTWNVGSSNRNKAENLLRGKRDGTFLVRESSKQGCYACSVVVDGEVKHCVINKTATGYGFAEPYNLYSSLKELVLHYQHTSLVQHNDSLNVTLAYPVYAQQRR

| IC50 | Structure (SMILES) |
| --- | --- |
| 50 to 200 nM | CCOc1c(C(C)n2nc(CNC)c3c(N)ncnc32)cc(Cl)c(C)c1-c1ccc(C(=O)N(C)C)nc1 (racemic) [Example 84, 5-[3-(1-{4-Amino-3-[(methylamino)methyl]-1H-pyrazolo[3,4-d]pyrimidin-1-yl}ethyl)-5-chloro-2-ethoxy-6-methylphenyl]-N,N-dimethylpyridine-2-carboxamide tris(trifluoroacetate)] |
| ≤ 10 nM | CCOc1c(C(C)n2nc(-c3cc[nH]n3)c3c(N)ncnc32)cc(Cl)c(C)c1-c1ccc(C(=O)N(C)C)nc1 (racemic) [Example 51, 5-(3-{1-[4-amino-3-(1H-pyrazol-3-yl)-1H-pyrazolo[3,4-d]pyrimidin-1-yl]ethyl}-5-chloro-2-ethoxy-6-methylphenyl)-N,N-dimethylpyridine-2-carboxamide bis(trifluoroacetate)] |
| ≤ 10 nM | COc1c(C(C)n2nc(C)c3c(N)ncnc32)cc(Cl)c(C#N)c1-c1ccc(C(=O)N(C)C)nc1 (single isomer, unassigned) [313 (2nd peak), 5-{3-[1-(4-amino-3-methyl-1H-pyrazolo[3,4-d]pyrimidin-1-yl)ethyl]-5-chloro-6-cyano-2-methoxyphenyl}-N,N-dimethylpyridine-2-carboxamide] |
| ≤ 10 nM | COc1c(C(C)n2nc(C)c3c(N)ncnc32)cc(Cl)c(C)c1-c1ccc(N(C)C)nc1 (single isomer, unassigned) [Example 185, 1-(1-(5-chloro-3-(6-(dimethylamino)pyridin-3-yl)-2-methoxy-4-methylphenyl)ethyl)-3-methyl-1H-pyrazolo[3,4-d]pyrimidin-4-amine] |
| ≤ 10 nM | CCOc1c(C(C)n2nc(-c3cccnc3)c3c(N)ncnc32)cc(Cl)c(C)c1-c1ccc(C(=O)N(C)C)nc1 (racemic) [Example 61, 5-{3-[1-(4-amino-3-pyridin-3-yl-1H-pyrazolo[3,4-d]pyrimidin-1-yl)ethyl]-5-chloro-2-ethoxy-6-methylphenyl}-N,N-dimethylpyridine-2-carboxamide tris(trifluoroacetate)] |
| ≤ 10 nM | CCOc1c(C(C)n2nc(C3CC3)c3c(N)ncnc32)cc(Cl)c(C)c1-c1ccc(C(=O)N(C)C)nc1 (racemic) [Example 53, 5-{3-[1-(4-amino-3-cyclopropyl-1H-pyrazolo[3,4-d]pyrimidin-1-yl)ethyl]-5-chloro-2-ethoxy-6-methylphenyl}-N,N-dimethylpyridine-2-carboxamide bis(trifluoroacetate)] |
| 10 to 50 nM | COc1c(C(C)n2ncc3c(N)ncnc32)cc(Cl)c(C)c1-c1ccnc(C(=O)N(C)C)c1 (racemic) [Example 38, 4-{3-[1-(4-amino-1H-pyrazolo[3,4-d]pyrimidin-1-yl)ethyl]-5-chloro-2-methoxy-6-methylphenyl}-N,N-dimethylpyridine-2-carboxamide] |
| ≤ 10 nM | CCOc1c(C(C)n2nc(-c3cccc(F)c3)c3c(N)ncnc32)cc(Cl)c(C)c1-c1ccc(C(=O)N(C)C)nc1 (racemic) [Example 47, 5-(3-{1-[4-amino-3-(3-fluorophenyl)-1H-pyrazolo[3,4-d]pyrimidin-1-yl]ethyl}-5-chloro-2-ethoxy-6-methylphenyl)-N,N-dimethylpyridine-2-carboxamide bis(trifluoroacetate)] |
| ≤ 10 nM | CCOc1c(C(C)n2nc(-c3cnc(N)nc3)c3c(N)ncnc32)cc(Cl)c(C)c1-c1ccc(C(=O)N(C)C)nc1 (racemic) [Example 58, 5-(3-{1-[4-amino-3-(2-aminopyrimidin-5-yl)-1H-pyrazolo[3,4-d]pyrimidin-1-yl]ethyl}-5-chloro-2-ethoxy-6-methylphenyl)-N,N-dimethylpyridine-2-carboxamide tris(trifluoroacetate)] |
| ≤ 10 nM | CCOc1c(C(C)n2nc(C)c3c(N)ncnc32)cc(Cl)c(C#N)c1-c1ccnc(C(=O)N(C)C)c1 (single isomer, unassigned) [Example 334, 4-{3-[1-(4-amino-3-methyl-1H-pyrazolo[3,4-d]pyrimidin-1-yl)ethyl]-5-chloro-6-cyano-2-ethoxyphenyl}-N,N-dimethylpyridine-2-carboxamide] |
| ≤ 10 nM | CCOc1c(C(C)n2nc(C)c3c(N)ncnc32)cc(Cl)c(C)c1-c1cnn(CC(=O)N(C)C)c1 (single isomer, unassigned) [Example 205, 2-(4-(3-(1-(4-amino-3-methyl-1H-pyrazolo[3,4-d]pyrimidin-1-yl)ethyl)-5-chloro-2-ethoxy-6-methylphenyl)-1H-pyrazol-1-yl)-N,N-dimethylacetamide] |

More lines, now with the values behind:

| Structure (SMILES) | IC50 |
| --- | --- |
| CCOc1c(C(C)n2nc(C)c3c(N)ncnc32)cc(Cl)c(C#N)c1C1CNC(=O)C1 (single isomer, unassigned) [Example 351, 4-[1-(4-amino-3-methyl-1H-pyrazolo[3,4-d]pyrimidin-1-yl)ethyl]-6-chloro-3-ethoxy-2-(5-oxopyrrolidin-3-yl)benzonitrile] | 50 to 200 nM |
| CCOc1c(C(C)n2nc(C(F)F)c3c(N)ncnc32)cc(Cl)c(F)c1C1CN(C)C1 (racemic) [Example 151, 1-{1-[5-Chloro-2-ethoxy-4-fluoro-3-(1-methylazetidin-3-yl)phenyl]ethyl}-3-(difluoromethyl)-1H-pyrazolo[3,4-d]pyrimidin-4-amine] | ≤ 10 nM |
| COc1c(C(C)n2nc(C)c3c(N)ncnc32)cc(Cl)c(Cl)c1C1CN(C(C)C)C1 (single isomer, unassigned) [Example 299, 1-{1-[4,5-Dichloro-3-(1-isopropylazetidin-3-yl)-2-methoxyphenyl]ethyl}-3-methyl-1H-pyrazolo[3,4-d]pyrimidin-4-amine] | ≤ 10 nM |
| CCOc1c(C(C)n2nc(-c3ccc(C(=O)N(C)C)nc3)c3c(N)ncnc32)cc(Cl)c(C)c1-c1ccc(C(=O)N(C)C)nc1 (racemic) [Example 56, 5-{4-amino-1-[1-(5-chloro-3-{6-[(dimethylamino)carbonyl]pyridin-3-yl}-2-ethoxy-4-methylphenyl)ethyl]-1H-pyrazolo[3,4-d]pyrimidin-3-yl}-N,N-dimethylpyridine-2-carboxamide tris(trifluoroacetate)] | 10 to 50 nM |
| CCOc1c(C(C)n2nc(C)c3c(N)ncnc32)cc(C)c(C#N)c1-c1cncc(S(C)(=O)=O)c1 (single isomer, unassigned) [Example 335, 4-[1-(4-amino-3-methyl-1H-pyrazolo[3,4-d]pyrimidin-1-yl)ethyl]-3-ethoxy-6-methyl-2-[5-(methylsulfonyl)pyridin-3-yl]benzonitrile] | ≤ 10 nM |
| COc1c(C(C)n2nc(C)c3c(N)ncnc32)cc(Cl)c(C)c1C1CNC(=O)CO1 (single isomer, unassigned) [324 (2nd peak), 6-{3-[1-(4-Amino-3-methyl-1H-pyrazolo[3,4-d]pyrimidin-1-yl)ethyl]-5-chloro-2-methoxy-6-methylphenyl}morpholin-3-one] | ≤ 10 nM |
| CCOc1c(C(C)n2nc(C)c3c(N)ncnc32)cc(Cl)c(C#N)c1C1CN(CC2CCOCC2)C1 (single isomer, unassigned) [Example 232, 4-[1-(4-Amino-3-methyl-1H-pyrazolo[3,4-d]pyrimidin-1-yl)ethyl]-6-chloro-3-ethoxy-2-[1-(tetrahydro-2H-pyran-4-ylmethyl)azetidin-3-yl]benzonitrile] | ≤ 10 nM |
| CCOc1c(C(C)n2nc(C)c3c(N)ncnc32)cc(Cl)c(C#N)c1C1CN(C(=O)C(C)(C)C)C1 (single isomer, unassigned) [Example 245, 4-[1-(4-Amino-3-methyl-1H-pyrazolo[3,4-d]pyrimidin-1-yl)ethyl]-6-chloro-2-[1-(2,2-dimethylpropanoyl)azetidin-3-yl]-3-ethoxybenzonitrile] | ≤ 10 nM |
| CCOc1c(C(C)n2nc(C)c3c(N)ncnc32)cc(Cl)c(C#N)c1C1CN(CC(C)C)C1 (single isomer, unassigned) [Example 216, 4-[1-(4-Amino-3-methyl-1H-pyrazolo[3,4-d]pyrimidin-1-yl)ethyl]-6-chloro-3-ethoxy-2-(1-isobutylazetidin-3-yl)benzonitrile] | ≤ 10 nM |
| CCOc1c(C(C)n2nc(C)c3c(N)ncnc32)cc(Cl)c(C#N)c1C1CN(C(COC)COC)C1 (single isomer, unassigned) [Example 226, 4-[1-(4-Amino-3-methyl-1H-pyrazolo[3,4-d]pyrimidin-1-yl)ethyl]-6-chloro-3-ethoxy-2-{1-[2-methoxy-1-(methoxymethyl)ethyl]azetidin-3-yl}benzonitrile] | ≤ 10 nM |
| COc1c(C(C)n2nc(C)c3c(N)ncnc32)cc(Cl)c(C)c1C1CN(C(=O)[C@@H](C)O)C1 (stereo partly drawn) [Example 121, (2R)-1-(3-{3-[1-(4-Amino-3-methyl-1H-pyrazolo[3,4-d]pyrimidin-1-yl)ethyl]-5-chloro-2-methoxy-6-methylphenyl}azetidin-1-yl)-1-oxopropan-2-ol trifluoroacetate] | ≤ 10 nM |
| CCOc1c(C(C)n2nc(C)c3c(N)ncnc32)cc(Cl)c(C#N)c1C1CN(C(C)=O)C1 (single isomer, unassigned) [Example 242, 2-(1-Acetylazetidin-3-yl)-4-[1-(4-amino-3-methyl-1H-pyrazolo[3,4-d]pyrimidin-1-yl)ethyl]-6-chloro-3-ethoxybenzonitrile] | ≤ 10 nM |
| COc1c(C(C)n2nc(C)c3c(N)ncnc32)cc(Cl)c(C#N)c1C1CN(C2CCC2)C1 (single isomer, unassigned) [Example 267, 4-[1-(4-Amino-3-methyl-1H-pyrazolo[3,4-d]pyrimidin-1-yl)ethyl]-6-chloro-2-(1-cyclobutylazetidin-3-yl)-3-methoxybenzonitrile] | ≤ 10 nM |
| CCNC(=O)N1CC(c2c(C#N)c(Cl)cc(C(C)n3nc(C)c4c(N)ncnc43)c2OCC)C1 (single isomer, unassigned) [Example 258, 3-{3-[1-(4-Amino-3-methyl-1H-pyrazolo[3,4-d]pyrimidin-1-yl)ethyl]-5-chloro-6-cyano-2-ethoxyphenyl}-N-ethylazetidine-1-carboxamide] | ≤ 10 nM |
